Our source for the IC50 values is patent US11834453B2, “Substituted pyrimido[5,4-d]pyrimidines as HER2 inhibitors” (Array BioPharma Inc., priority 2020, dated 2023).

Molecules are shown by their SMILES.

One experiment concerns the target EGFR (Homo sapiens (Human), UniProt P00533). The experiment in a line: ErbB enzyme assay (CisBio HTRF KinEASE-TK), Assay 3. It counts as biochemical. The method in brief:
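First, enzyme was reacted with compound, 1 mM ATP and 250 nM biotinylated tyrosine-kinase peptide for 30 min at 22 °C at pH 7.4. Next, streptavidin-XL665 and cryptate antibody were added for 1 h. Finally, HTRF ratios were converted to POC and fitted to yield IC50.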

Experiment [1] deals with ErbB2 with Exon 20 YVMA insertion (HER2-YVMA) (Homo sapiens (Human), UniProt P04626, INS775YVMA). Kind of experiment: Cellular phosphorylation assay, constitutive ErbB2 phosphorylation (Y1196) in engineered NIH 3T3 cells, Assay 4. It counts as cell-based. The method in brief: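 In-cell Western in NIH 3T3 cells carrying ErbB2 exon 20 YVMA insertion, with no ligand stimulation. One hour compound exposure at 37 °C before fixation and anti-pY1196 plus GAPDH staining with dual-wavelength fluorescence. IC50 derived after GAPDH normalization.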
Chain of ErbB2 with Exon 20 YVMA insertion (HER2-YVMA) (P04626 other isoform, or with tags, fused parts or gaps ins YVMA behind 775): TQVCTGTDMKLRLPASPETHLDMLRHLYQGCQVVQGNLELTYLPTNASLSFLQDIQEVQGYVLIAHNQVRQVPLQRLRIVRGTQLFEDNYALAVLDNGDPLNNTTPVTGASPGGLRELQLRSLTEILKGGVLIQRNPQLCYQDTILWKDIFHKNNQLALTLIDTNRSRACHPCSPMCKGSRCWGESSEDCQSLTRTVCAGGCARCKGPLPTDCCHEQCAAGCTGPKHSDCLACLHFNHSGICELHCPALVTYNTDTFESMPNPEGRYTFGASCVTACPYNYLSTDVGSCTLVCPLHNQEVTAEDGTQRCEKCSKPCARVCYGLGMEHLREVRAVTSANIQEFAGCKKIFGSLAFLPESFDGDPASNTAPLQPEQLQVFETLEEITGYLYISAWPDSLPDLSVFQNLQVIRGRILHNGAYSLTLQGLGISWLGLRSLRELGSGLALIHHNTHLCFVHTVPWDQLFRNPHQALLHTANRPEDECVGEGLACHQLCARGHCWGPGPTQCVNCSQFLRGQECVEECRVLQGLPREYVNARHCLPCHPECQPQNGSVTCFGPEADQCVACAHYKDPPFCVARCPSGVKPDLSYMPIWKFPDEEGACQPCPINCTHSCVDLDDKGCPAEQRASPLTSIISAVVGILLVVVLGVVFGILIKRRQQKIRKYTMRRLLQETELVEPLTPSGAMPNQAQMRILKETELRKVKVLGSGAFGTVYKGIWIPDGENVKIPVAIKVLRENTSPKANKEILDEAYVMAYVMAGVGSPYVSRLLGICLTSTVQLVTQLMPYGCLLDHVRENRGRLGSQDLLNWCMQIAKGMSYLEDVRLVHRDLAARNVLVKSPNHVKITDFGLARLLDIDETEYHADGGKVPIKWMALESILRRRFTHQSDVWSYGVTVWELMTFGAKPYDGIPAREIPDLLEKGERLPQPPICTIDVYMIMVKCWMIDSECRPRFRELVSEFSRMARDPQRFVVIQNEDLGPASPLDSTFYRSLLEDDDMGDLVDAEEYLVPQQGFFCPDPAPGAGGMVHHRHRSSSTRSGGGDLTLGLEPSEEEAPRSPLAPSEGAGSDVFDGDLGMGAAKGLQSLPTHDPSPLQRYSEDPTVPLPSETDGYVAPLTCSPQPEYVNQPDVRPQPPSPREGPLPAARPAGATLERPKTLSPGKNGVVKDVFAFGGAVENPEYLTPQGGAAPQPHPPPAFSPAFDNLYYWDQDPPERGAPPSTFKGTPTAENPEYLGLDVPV

Another experiment addresses ErbB2 WT (Homo sapiens (Human), UniProt P04626). Kind of experiment: ErbB enzyme assay (CisBio HTRF KinEASE-TK), Assay 2. The class given is biochemical. The method in brief: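 Readout is HTRF KinEASE-TK, using Sa-XL665 and cryptate antibody for 1 h at 22 °C, as percent of control between DMSO-only (100) and pre-quenched (0) reactions. The kinase reaction runs 30 min at 22 °C with 1 mM ATP and 250 nM biotinylated TK substrate, in HEPES pH 7.4 with MgCl2 and 2% DMSO.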
For orientation: Time-resolved FRET reads energy transfer from a long-lived donor to a nearby acceptor.

The target of another experiment is EGFR wild type (EGFR WT) (Homo sapiens (Human), UniProt P00533). The experiment in a line: Cellular phosphorylation assay, EGF-stimulated EGFR phosphorylation in engineered NIH 3T3 cells, Phospho-EGFR DuoSet IC ELISA, Assay 5. The class given is cell-based. The protocol:
NIH 3T3 cells were engineered to express EGFR wild type (EGFR WT; Assay 5, no footnote) with constructs obtained from GenScript and grown in DMEM supplemented with 10% fetal bovine serum and 15 μg/ml blasticidin. Cells were plated in 96-well plates at 20,000 cells/well and allowed to attach overnight at 37° C./5% CO2. Serially diluted compounds were added to the plates for 1 hour at 37° C./5% CO2. EGFR WT cells were stimulated with 100 ng/ml rEGF for an additional 10 minutes at 37° C./5% CO2. After compound incubation, medium was removed from the cells, which were then lysed in 100 μL/well lysis buffer according to the manufacturer's protocol (R&D Systems, DYC1095, Human Phospho-EGFR DuoSet IC ELISA). Same protocol was followed to determine the total levels of phospho-EGFR by measuring the optical density of each well using a VersaMax microplate reader. Curves were then generated and IC50 values calculated.
A general note: In an ELISA, binding on a coated surface is turned into a signal by an enzyme label.

The target in experiment [2] is ErbB2 insYVMA (HER2-YVMA, SEQ ID NO: 2) (Homo sapiens, UniProt P04626, INS775YVMA/P1170A). Kind of experiment: biochemical. The following applies: ErbB2 insYVMA enzyme assay; read-out: Assay 1 IC50.
Chain of ErbB2 insYVMA (HER2-YVMA, SEQ ID NO: 2) (P04626 with tags, fused parts or gaps INS775YVMA/P1170A limits assumed): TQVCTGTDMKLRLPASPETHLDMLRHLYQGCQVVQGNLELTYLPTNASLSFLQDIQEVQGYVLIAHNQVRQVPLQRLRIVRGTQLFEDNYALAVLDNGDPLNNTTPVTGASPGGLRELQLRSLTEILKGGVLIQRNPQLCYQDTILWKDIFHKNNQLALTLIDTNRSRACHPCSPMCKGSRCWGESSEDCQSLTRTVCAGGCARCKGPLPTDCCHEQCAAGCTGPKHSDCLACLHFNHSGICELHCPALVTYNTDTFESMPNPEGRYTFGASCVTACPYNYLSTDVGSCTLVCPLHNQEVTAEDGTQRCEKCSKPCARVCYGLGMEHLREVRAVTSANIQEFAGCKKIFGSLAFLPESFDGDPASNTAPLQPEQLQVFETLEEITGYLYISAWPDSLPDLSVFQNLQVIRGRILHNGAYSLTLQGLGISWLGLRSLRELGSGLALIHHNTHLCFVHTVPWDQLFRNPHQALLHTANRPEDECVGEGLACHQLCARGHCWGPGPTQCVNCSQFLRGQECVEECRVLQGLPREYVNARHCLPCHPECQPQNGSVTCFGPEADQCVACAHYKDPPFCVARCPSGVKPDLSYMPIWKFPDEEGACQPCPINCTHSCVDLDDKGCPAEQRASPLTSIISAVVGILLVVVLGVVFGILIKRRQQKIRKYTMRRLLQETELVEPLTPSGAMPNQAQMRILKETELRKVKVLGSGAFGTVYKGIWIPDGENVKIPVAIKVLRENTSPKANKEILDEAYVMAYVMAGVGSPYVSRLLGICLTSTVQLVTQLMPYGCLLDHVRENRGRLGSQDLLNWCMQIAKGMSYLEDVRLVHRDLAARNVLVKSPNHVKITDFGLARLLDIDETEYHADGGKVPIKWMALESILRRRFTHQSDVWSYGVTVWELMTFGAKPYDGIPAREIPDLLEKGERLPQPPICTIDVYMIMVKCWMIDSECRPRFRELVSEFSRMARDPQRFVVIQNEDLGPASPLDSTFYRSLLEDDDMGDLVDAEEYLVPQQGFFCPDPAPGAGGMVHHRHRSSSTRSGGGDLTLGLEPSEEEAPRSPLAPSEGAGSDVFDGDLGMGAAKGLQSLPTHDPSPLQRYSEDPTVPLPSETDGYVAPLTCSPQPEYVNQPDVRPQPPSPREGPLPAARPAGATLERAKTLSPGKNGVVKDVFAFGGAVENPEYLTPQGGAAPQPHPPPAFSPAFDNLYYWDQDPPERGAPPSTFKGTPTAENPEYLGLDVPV

Chain of ErbB2 WT (P04626 23-1255): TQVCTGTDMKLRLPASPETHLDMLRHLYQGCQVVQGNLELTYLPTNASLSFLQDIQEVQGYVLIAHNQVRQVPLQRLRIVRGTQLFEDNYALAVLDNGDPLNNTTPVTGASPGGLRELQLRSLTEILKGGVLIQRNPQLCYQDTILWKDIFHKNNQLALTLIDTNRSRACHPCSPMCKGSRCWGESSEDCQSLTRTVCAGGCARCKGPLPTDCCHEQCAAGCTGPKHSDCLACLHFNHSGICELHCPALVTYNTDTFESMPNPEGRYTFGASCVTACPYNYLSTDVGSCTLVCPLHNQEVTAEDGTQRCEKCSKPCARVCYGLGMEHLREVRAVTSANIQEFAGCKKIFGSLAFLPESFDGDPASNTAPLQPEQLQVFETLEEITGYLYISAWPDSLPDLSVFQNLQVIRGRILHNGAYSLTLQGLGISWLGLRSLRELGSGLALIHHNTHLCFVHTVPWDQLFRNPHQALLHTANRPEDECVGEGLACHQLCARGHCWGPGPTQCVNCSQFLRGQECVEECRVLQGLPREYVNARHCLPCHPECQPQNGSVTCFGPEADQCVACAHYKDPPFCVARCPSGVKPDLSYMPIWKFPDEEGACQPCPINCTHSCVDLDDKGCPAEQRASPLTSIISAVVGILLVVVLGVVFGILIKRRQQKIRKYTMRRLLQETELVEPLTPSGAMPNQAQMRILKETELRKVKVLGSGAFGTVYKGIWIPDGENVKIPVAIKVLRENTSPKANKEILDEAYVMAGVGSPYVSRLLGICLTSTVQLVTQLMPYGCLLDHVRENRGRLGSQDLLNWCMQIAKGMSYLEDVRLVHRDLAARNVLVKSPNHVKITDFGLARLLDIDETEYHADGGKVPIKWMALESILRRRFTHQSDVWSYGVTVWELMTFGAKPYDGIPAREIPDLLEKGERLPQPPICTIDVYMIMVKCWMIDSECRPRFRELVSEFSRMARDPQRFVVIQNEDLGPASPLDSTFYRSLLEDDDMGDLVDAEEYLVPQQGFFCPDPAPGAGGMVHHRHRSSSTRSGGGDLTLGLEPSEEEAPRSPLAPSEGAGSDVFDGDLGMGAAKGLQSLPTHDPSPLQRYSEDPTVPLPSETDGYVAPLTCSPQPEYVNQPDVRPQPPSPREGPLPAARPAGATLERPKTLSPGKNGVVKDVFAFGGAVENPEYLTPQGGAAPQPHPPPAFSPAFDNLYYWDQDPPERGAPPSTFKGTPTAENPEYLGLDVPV
Chain of EGFR (P00533 25-1210): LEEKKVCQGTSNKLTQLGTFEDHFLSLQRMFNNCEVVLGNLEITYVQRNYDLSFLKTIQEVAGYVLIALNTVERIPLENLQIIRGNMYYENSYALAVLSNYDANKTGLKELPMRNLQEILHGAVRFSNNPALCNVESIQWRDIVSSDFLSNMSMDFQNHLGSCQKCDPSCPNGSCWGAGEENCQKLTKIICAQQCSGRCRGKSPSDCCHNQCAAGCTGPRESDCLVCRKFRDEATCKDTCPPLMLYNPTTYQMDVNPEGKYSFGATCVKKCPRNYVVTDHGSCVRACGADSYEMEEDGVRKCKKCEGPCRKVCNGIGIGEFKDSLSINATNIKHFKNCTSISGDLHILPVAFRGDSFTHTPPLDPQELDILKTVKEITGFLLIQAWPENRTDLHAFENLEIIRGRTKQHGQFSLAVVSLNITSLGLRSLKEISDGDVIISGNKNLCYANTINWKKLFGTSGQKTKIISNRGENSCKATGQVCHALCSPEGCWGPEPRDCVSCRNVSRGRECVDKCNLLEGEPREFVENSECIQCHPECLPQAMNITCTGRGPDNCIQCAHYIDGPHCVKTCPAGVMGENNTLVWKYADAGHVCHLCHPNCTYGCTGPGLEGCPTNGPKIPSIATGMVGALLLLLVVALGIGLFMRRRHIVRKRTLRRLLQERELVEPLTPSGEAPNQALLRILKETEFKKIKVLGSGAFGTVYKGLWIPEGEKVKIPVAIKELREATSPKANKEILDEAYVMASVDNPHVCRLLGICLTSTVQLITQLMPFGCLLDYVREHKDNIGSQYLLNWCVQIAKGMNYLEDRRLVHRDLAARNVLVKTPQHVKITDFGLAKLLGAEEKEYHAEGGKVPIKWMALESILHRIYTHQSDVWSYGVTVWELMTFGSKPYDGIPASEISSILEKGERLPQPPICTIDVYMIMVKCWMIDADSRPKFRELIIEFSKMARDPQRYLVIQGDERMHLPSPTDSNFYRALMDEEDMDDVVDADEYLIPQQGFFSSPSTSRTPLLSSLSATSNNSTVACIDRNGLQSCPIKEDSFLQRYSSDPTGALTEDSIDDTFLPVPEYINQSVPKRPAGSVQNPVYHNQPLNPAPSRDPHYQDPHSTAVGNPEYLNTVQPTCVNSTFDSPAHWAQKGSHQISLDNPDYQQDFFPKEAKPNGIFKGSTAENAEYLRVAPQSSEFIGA

The IC50 is the midpoint of a concentration-inhibition curve. As to `CC(=O)O[C@H]1CN(c2ncc3ncnc(Nc4ccc(Oc5ccc6c(c5)ncn6C)c(C)c4)c3n2)C[C@H]1F` [Example 90, (3S,4R)-4-fluoro-1-(8-((3-methyl-4-((1-methyl-1H-benzo[d]imidazol-5-yl)oxy)phenyl)amino)pyrimido[5,4-d]pyrimidin-2-yl) pyrrolidin-3-yl acetate], the IC50 was not below 10 µM at EGFR; 0.029 µM in experiment [1]; 0.0931 µM against ErbB2 WT; not below 5 µM at EGFR wild type (EGFR WT); 0.041 µM in experiment [2].

Take `CON1CCN(c2ncc3ncnc(Nc4ccc(Oc5ccn6ncnc6c5)c(C)c4F)c3n2)CC1` [Example 95, N-(4-([1,2,4]triazolo[1,5-a]pyridin-7-yloxy)-2-fluoro-3-methylphenyl)-6-(4-methoxypiperazin-1-yl)pyrimido[5,4-d]pyrimidin-4-amine]: the 50% inhibitory concentration (IC50) on EGFR was not below 10 µM; in experiment [1] it was 0.179 µM; against ErbB2 WT, 0.0951 µM; against EGFR wild type (EGFR WT), not below 5 µM; in experiment [2], 0.0252 µM.

Turning to `CON1CCN(c2ncc3ncnc(Nc4ccc(Oc5ccn6ncnc6c5)c(C)c4)c3n2)CC1` [Example 96, N-(4-([1,2,4]triazolo[1,5-a]pyridin-7-yloxy)-3-methylphenyl)-6-(4-methoxypiperazin-1-yl)pyrimido[5,4-d]pyrimidin-4-amine], the IC50 on EGFR is 8.89 µM; in experiment [1] it was 0.0961 µM; against ErbB2 WT it was 0.0812 µM; against EGFR wild type (EGFR WT), not below 5 µM; in experiment [2] it was 0.0231 µM.

For `CON1CCN(c2ncc3ncnc(Nc4ccc(Oc5ccc6c(c5)ncn6C)c(C)c4Cl)c3n2)CC1` [Example 98, N-(2-chloro-3-methyl-4-((1-methyl-1H-benzo[d]imidazol-5-yl)oxy)phenyl)-6-(4-methoxypiperazin-1-yl)pyrimido[5,4-d]pyrimidin-4-amine], the IC50 was not below 10 µM against EGFR; 0.266 µM in experiment [1]; 1.95 µM against ErbB2 WT; not below 5 µM against EGFR wild type (EGFR WT); 0.232 µM in experiment [2].

As to `Cc1cc(Nc2ncnc3cnc(N(C)[C@H]4CN(C)C[C@H]4F)nc23)ccc1Oc1ccc2c(c1)ncn2C` [Example 99, N2-((3S,4R)-4-fluoro-1-methylpyrrolidin-3-yl)-N2-methyl-N8-(3-methyl-4-((1-methyl-1H-benzo[d]imidazol-5-yl)oxy)phenyl)pyrimido[5,4-d]pyrimidine-2,8-diamine], the 50% inhibitory concentration (IC50) at EGFR was 6.47 µM; in experiment [1], 0.0445 µM; against ErbB2 WT, 0.018 µM; against EGFR wild type (EGFR WT), not below 5 µM; in experiment [2], 0.0171 µM.

Take `Cc1cc(Nc2ncnc3cnc(N(C)CCC(C)(C)O)nc23)ccc1Oc1ccc2c(c1)ncn2C` [Example 102, 2-methyl-4-(methyl(8-((3-methyl-4-((1-methyl-1H-benzo[d]imidazol-5-yl)oxy)phenyl)amino)pyrimido[5,4-d]pyrimidin-2-yl)amino)butan-2-ol]: the IC50 was 2.73 µM at EGFR; 0.0094 µM in experiment [1]; 0.0207 µM against ErbB2 WT; not below 5 µM against EGFR wild type (EGFR WT); 0.0238 µM in experiment [2].

`Cc1cc(Nc2ncnc3cnc(NCc4cnn(C)c4C)nc23)ccc1Oc1ccc2c(c1)ncn2C` [Example 103, N2-((1,5-dimethyl-1H-pyrazol-4-yl)methyl)-N8-(3-methyl-4-((1-methyl-1H-benzo[d]imidazol-5-yl)oxy)phenyl)pyrimido[5,4-d]pyrimidine-2,8-diamine]: the IC50 is not below 10 µM at EGFR; 0.0615 µM in experiment [1]; 0.0566 µM on ErbB2 WT; not below 5 µM against EGFR wild type (EGFR WT); 0.0203 µM in experiment [2].

`Clc1cc(Nc2ncnc3cnc(N4CCC4)nc23)ccc1Oc1ccn2ncnc2c1` [Example 112, N-(4-([1,2,4]triazolo[1,5-a]pyridin-7-yloxy)-3-chlorophenyl)-6-(azetidin-1-yl)pyrimido[5,4-d]pyrimidin-4-amine]: the IC50 at EGFR was not below 10 µM; in experiment [1], 0.19 µM; on ErbB2 WT it was 0.0441 µM; on EGFR wild type (EGFR WT), not below 5 µM; in experiment [2], 0.0187 µM.

On to `CN(c1ncc2ncnc(Nc3ccc(Oc4ccc5c(c4)ncn5C)c(Cl)c3)c2n1)[C@H]1CCOC1` [Example 117, (S)—N8-(3-chloro-4-((1-methyl-1H-benzo[d]imidazol-5-yl)oxy)phenyl)-N2-methyl-N2-(tetrahydrofuran-3-yl)pyrimido[5,4-d]pyrimidine-2,8-diamine], for which the IC50 against EGFR is not below 10 µM; in experiment [1] it was 0.0083 µM; against ErbB2 WT it was 0.0933 µM; at EGFR wild type (EGFR WT), not below 5 µM; in experiment [2], 0.0467 µM.

Turning to `Cc1cc(Nc2ncnc3cnc(N4C[C@H]5C[C@@H]4CO5)nc23)ccc1Oc1ccn2ncnc2c1` [Example 121, N-(4-([1,2,4]triazolo[1,5-a]pyridin-7-yloxy)-3-methylphenyl)-6-((1R,4R)-2-oxa-5-azabicyclo[2.2.1]heptan-5-yl)pyrimido[5,4-d]pyrimidin-4-amine], the IC50 at EGFR is not below 10 µM; in experiment [1], 0.667 µM; on ErbB2 WT, 0.121 µM; at EGFR wild type (EGFR WT), not below 5 µM; in experiment [2] it was 0.0324 µM.

For the molecule `CN(c1ncc2ncnc(Nc3ccc(Oc4ccn5ncnc5c4)c(Cl)c3)c2n1)[C@H]1CCOC1` [Example 133, (S)—N8-(4-([1,2,4]triazolo[1,5-a]pyridin-7-yloxy)-3-chlorophenyl)-N2-methyl-N2-(tetrahydrofuran-3-yl)pyrimido[5,4-d]pyrimidine-2,8-diamine], the IC50 at EGFR was 5.72 µM; in experiment [1], 0.0554 µM; against ErbB2 WT, 0.0262 µM; against EGFR wild type (EGFR WT), not below 5 µM; in experiment [2] it was 0.0108 µM.

`Cc1cc(Nc2ncnc3cnc(N4CC5CC(C4)O5)nc23)ccc1Oc1ccn2ncnc2c1` [Example 135, N-(4-([1,2,4]triazolo[1,5-a]pyridin-7-yloxy)-3-methylphenyl)-6-(6-oxa-3-azabicyclo[3.1.1]heptan-3-yl)pyrimido[5,4-d]pyrimidin-4-amine]: the 50% inhibitory concentration (IC50) is not below 10 µM against EGFR; 0.514 µM in experiment [1]; 0.0457 µM against ErbB2 WT; not below 5 µM against EGFR wild type (EGFR WT); 0.0262 µM in experiment [2].

With `Cc1cc(Nc2ncnc3cnc(N4CCN(C)[C@H](C)C4)nc23)ccc1Oc1ccn2ncnc2c1` [Example 136, (R)—N-(4-([1,2,4]triazolo[1,5-a]pyridin-7-yloxy)-3-methylphenyl)-6-(3,4-dimethylpiperazin-1-yl)pyrimido[5,4-d]pyrimidin-4-amine], the IC50 was not below 10 µM at EGFR; 0.315 µM in experiment [1]; 0.0593 µM at ErbB2 WT; not below 5 µM at EGFR wild type (EGFR WT); 0.0553 µM in experiment [2].

Turning to `Cc1cc(Nc2ncnc3cnc(N4CCCC4=O)nc23)ccc1Oc1ccn2ncnc2c1` [Example 137, 1-(8-((4-([1,2,4]triazolo[1,5-a]pyridin-7-yloxy)-3-methylphenyl)amino)pyrimido[5,4-d]pyrimidin-2-yl)pyrrolidin-2-one], the IC50 on EGFR was not below 10 µM; in experiment [1], 1.08 µM; on ErbB2 WT, 0.166 µM; at EGFR wild type (EGFR WT), not below 5 µM; in experiment [2] it was 0.0977 µM.

On to `Cc1cc(Nc2ncnc3cnc(N=S4(=O)CCOCC4)nc23)ccc1Oc1ccc2c(c1)ncn2C` [Example 138, 4-((8-((3-methyl-4-((1-methyl-1H-benzo[d]imidazol-5-yl)oxy)phenyl)amino)pyrimido[5,4-d]pyrimidin-2-yl)imino)-1,4λ^6-oxathiane 4-oxide], for which the half-maximal inhibitory concentration (IC50) on EGFR is 4.91 µM; in experiment [1], 0.0582 µM; at ErbB2 WT, 0.0336 µM; against EGFR wild type (EGFR WT), not below 5 µM; in experiment [2] it was 0.0322 µM.

Turning to `Cc1cc(Nc2ncnc3cnc(N4CCCS4(=O)=O)nc23)ccc1Oc1ccc2c(c1)ncn2C` [Example 139, 2-(8-((3-methyl-4-((1-methyl-1H-benzo[d]imidazol-5-yl)oxy)phenyl)amino)pyrimido[5,4-d]pyrimidin-2-yl)isothiazolidine 1,1-dioxide], the concentration for half-maximal inhibition (IC50) against EGFR is 1.57 µM; in experiment [1], 0.0063 µM; at ErbB2 WT, 0.0126 µM; on EGFR wild type (EGFR WT) it was not below 5 µM; in experiment [2], 0.0096 µM.
